Patent US20230278972A1, “SUBSTITUTED HALOALKYL SULFONANILIDE HERBICIDES” (FMC Corporation, priority 2020, published 2023)

Legend:
Assay type in all cases: in vivo
[1] = system: wheat (Triticum aestivum); test: Test A1 preemergence, wheat
Outline: (§1)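 Seeds were first planted into a blend of loam soil and sand and given a preemergence directed soil spray. In parallel, pots of the same soil were sown for postemergence application once plants reached 2 to 10 cm and the one- to two-leaf stage. Both used surfactant-containing non-phytotoxic solvent formulations.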

corn (Zea mays) = test: Test A1 preemergence, corn
Outline: (§2)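 Plants were grown in a loam soil/sand blend, with test chemicals formulated in a non-phytotoxic solvent mixture containing surfactant. Preemergence treatment (corn) was a directed soil spray at planting. Postemergence treatment was applied to plants 2 to 10 cm tall at the one- to two-leaf stage.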

[2] = system: goosegrass (Eleusine indica); test: Test A1 preemergence, goosegrass
Outline: as §1

[3] = system: horseweed (Erigeron canadensis); test: Test A1 postemergence, horseweed; details: Postemergence
Outline: as §1

[4] = system: Oat, Wild (wild oat, Avena fatua); test: Test A1 postemergence, Oat, Wild; details: Postemergence
Outline: as §2

[5] = system: ragweed (common ragweed, Ambrosia artemisiifolia); test: Test A1 postemergence, ragweed; details: Postemergence
Outline: as §2

[6] = system: ragweed (common ragweed, Ambrosia artemisiifolia); test: Test A1 preemergence, ragweed
Outline: as §1

[7] = system: goosegrass (Eleusine indica); test: Test A1 postemergence, goosegrass; details: Postemergence
Outline: as §1

[8] = system: blackgrass (Alopecurus myosuroides); test: Test A1 preemergence, blackgrass
Outline: as §1

[9] = system: Pigweed, Palmer (palmer amaranth, palmer pigweed, Amaranthus palmeri); test: Test A1 postemergence, Pigweed, Palmer; details: Postemergence
Outline: as §2

[10] = 31 g ai/ha, 0 to 100 scale (0 no effect, 100 complete control)
[11] = 125 g ai/ha, 0 to 100 scale, 0 no effect, 100 complete control
[12] = 31 g ai/ha, 0 to 100 scale (0 no effect, 100 complete control), 10 days

Structure (SMILES) | Plant response rating, Wheat [1, 10] | Plant response rating, Wheat [1, 11] | Plant response rating, Corn (corn (Zea mays); [10]) | Plant response rating, Corn (corn (Zea mays); [11]) | Plant response rating, Goosegrass [2, 10] | Plant response rating, Goosegrass [2, 11] | Plant response rating, Horseweed [3, 12] | Plant response rating, Horseweed ([3]; 125 g ai/ha, 0 to 100 scale) | Plant response rating, Oat, Wild [4, 12] | Plant response rating, Oat, Wild ([4]; 125 g ai/ha, 0 to 100 scale) | Plant response rating, Ragweed [5, 12] | Plant response rating, Ragweed ([5]; 125 g ai/ha, 0 to 100 scale) | Plant response rating, Ragweed [6, 10] | Plant response rating, Ragweed [6, 11] | Plant response rating, Goosegrass [7, 12] | Plant response rating, Goosegrass ([7]; 125 g ai/ha, 0 to 100 scale) | Plant response rating, Blackgrass [8, 10] | Plant response rating, Blackgrass [8, 11] | Plant response rating, Pigweed, Palmer [9, 12] | Plant response rating, Pigweed, Palmer ([9]; 125 g ai/ha, 0 to 100 scale)
Cc1c(NS(=O)(=O)C(F)(F)F)cc(C(=O)N(C)C)c(C)c1Cl [Compound 287] | 0 | 30 | 0 | 0 | 70 | 90 | 20 | 40 | 0 | 0 | 60 | 70 | 0 | 80 | 0 | 60 | 0 | 30 | 0 | 40
Cc1c(NS(=O)(=O)C(F)(F)F)cc(C(=O)N(C)C)c(C)c1C [Compound 288] | 0 | 0 | 0 | 0 | 30 | 90 | 20 | 30 | 0 | 0 | 30 | 80 | 0 | 40 | 0 | 70 | 0 | 0 | 0 | 30
Cc1c(NS(=O)(=O)C(F)(F)F)cc(C(=O)N2CCOCC2)c(C)c1C [Compound 289, 1,1,1-Trifluoro-N-[2,3,4-trimethyl-5-(4-morpholinylcarbonyl)phenyl]methanesulfonamide] | 30 | 80 | 0 | 30 | 80 | 90 | 80 | 90 | – | 20 | 70 | 80 | 0 | 60 | 40 | 70 | 0 | 60 | 10 | 60
Cc1cc(C)c(N(C(=O)OC(C)C)S(=O)(=O)C(F)(F)F)cc1C1=NOC2CCCC12 (centres unmarked) [Compound 295] | 0 | 30 | 0 | 0 | 80 | 90 | 10 | 50 | 0 | 0 | 50 | 70 | 0 | 0 | 20 | 70 | 0 | 0 | 0 | 30
Cc1cc(C)c(N(S(=O)(=O)C(F)(F)F)S(=O)(=O)C(F)(F)F)cc1C1=NOC2COCC12 (centres unmarked) [Compound 296] | 10 | 90 | 0 | 70 | 40 | 90 | 70 | 80 | 0 | 10 | 20 | 30 | 50 | 90 | 20 | 60 | 10 | 60 | 0 | 20
Cc1cc(C)c(C2=NOC3COCC23)cc1NS(=O)(=O)C(F)(F)F (centres unmarked) [Compound 297] | 20 | 100 | 0 | 20 | 70 | 90 | 50 | 80 | 20 | 30 | 30 | 70 | 20 | 60 | 0 | 70 | 20 | 40 | 10 | 20
Cc1cc(C)c(N(C(=O)OCC(C)C)S(=O)(=O)C(F)(F)F)cc1C1=NOC2CCCC12 (centres unmarked) [Compound 299] | 0 | 70 | 0 | 0 | 60 | 90 | 0 | 30 | 0 | 0 | 40 | 70 | 0 | 30 | 30 | 40 | 0 | 30 | 10 | 10
Cc1cc(C)c(N(COC(=O)C(C)(C)C)S(=O)(=O)C(F)(F)F)cc1C1=NOC2COCC12 (centres unmarked) [Compound 301] | 0 | 40 | 0 | 10 | 80 | 100 | 50 | 80 | 0 | 10 | 60 | 70 | 0 | 80 | 0 | 60 | 30 | 40 | 0 | 30
Cc1cc(Br)c(C2=NOC3CCCC23)cc1NS(=O)(=O)C(F)(F)F (centres unmarked) [Compound 302] | 0 | 20 | 0 | 0 | 0 | 90 | 10 | 40 | 0 | 0 | 30 | 70 | 0 | 30 | 0 | 10 | 0 | 0 | 10 | 40
